Experimental data: US10858344B2, “Hydantoin containing deoxyuridine triphosphatase inhibitors” (CV6 Therapeutics (NI) Limited, priority 2016, dated 2020)

Target: recombinant human deoxyuridine nucleotidohydrolase (dUTPase) (Homo sapiens (Human), UniProt P33316)
Test: fluorescence-based dUTPase inhibition assay
Type: biochemical
Settings: for % relative inhibition vs. positive control: mean over three concentrations, typically 100, 50 and 25 μmol/L, compared to in-run positive control
Source text: Recombinant human deoxyuridine nucleotidohydrolase (dUTPase) is expressed and purified as described in Ladner R D, Carr S A, Huddleston M J, McNulty D E, Caradonna S J. J Biol Chem. 1996 Mar. 29; 271(13):7752-7. All drugs stocks are aliquoted and diluted as appropriate prior to use. The oligonucelotide primer, templates and fluorophore- and quencher-labeled detection probes are synthesized by Integrated DNA Technologies (Coralville, Iowa), subjected to polyacrylamide gel electrophoresis purification and reconstituted in Omnipur sterile nuclease-free water (EMD Chemicals USA, Gibbstown N.J.) at a stock concentration of 100 μmol/L. The two non-emissive (dark) quenching molecules incorporated into the detection probes include the Iowa black fluorescein quencher (IBFQ; absorption max 531 nm) and ZEN (non-abbreviation; absorption max 532 nm). The fluorescent label utilized is 6-FAM (5′-carboxyfluorescein; excitation max.=494 nm, emission max.=520 nm). Probes are further diluted to a working stock of 10 μmol/L and aliquoted to avoid repeated freeze/thaw cycles. AmpliTaq Gold DNA Polymerase, GeneAmp 10×PCR Buffer 2, MgCl2 and MicroAmp Optical 96-well Reaction Plates are purchased from Applied Biosystems (Carlsbad, Calif.). dNTPs are purchased individually at stock concentrations of 100 mmol/L from New England Biolabs at HPLC-certified >99% purity (Ipswich, Mass.).
Reaction mixtures contained primer, probe and template at an equimolar final concentration of 0.4 μmol/L. Magnesium chloride (MgCl2) is included at a final concentration of 2 mmol/L. Non-limiting dNTPs are included in the reaction mix in excess at a final concentration of 100 μmol/L (dUTP/dTTP is excluded). AmpliTaq Gold DNA polymerase is added at 0.875 U/reaction, 2.5 μl of 10×PCR buffer 2 added and nuclease-free ddH2O added to a final reaction volume of 25 μl. For dUTP inhibition analysis, the volume of ddH2O is further modified to accommodate an additional 1 μl of dUTPase (10 ng/μl) and 1 μl of inhibitor or DMSO control. Thermal profiling and fluorescence detection is performed using a customized thermal program on board a Roche Lightcycler LC480 Instrument II. For analysis of dNTPs, the thermal profile consisted of an 8 min 37° C. step followed by a 10 min 95° C. step to ‘hot-start’ the Taq polymerase and a primer extension time of up to 30 min at 60° C. Raw fluorescence spectra for 6-FAM is measured at specified time intervals to follow assay progression on board a Roche LightCycler 480 Software Version 1.5 and exported and analyzed in Microsoft Excel (Microsoft, Redmond Wash.) and Prism (GraphPad Software, La Jolla Calif.). Fluorescence values for blank reactions (limiting dNTP omitted) are subtracted to give normalized fluorescence units (NFU) to account for background fluorescence.
Test compounds are screened in a fluorescence-based assay. The assay employs a DNA polymerase-based approach utilizing an oligonucleotide template with 3 distinct regions: a 3′ primer binding region, a mid-template dUTP/thymidine triphosphate (TTP) detection region and a 5′ 6-[…] (FAM)-labeled probe binding region that incorporates a black hole quenching moiety. During the reaction, the probe and primer hybridize to the oligonucleotide template to form the template:primer:probe complex. When Taq polymerase binds to the primer in the TPP complex and dUTP is present, successful extension of the nascent strand occurs and the inherent 5′ to 3′ exonuclease activity of Taq polymerase cleaves and displaces the 6-FAM-labeled probe in a 5′ to 3′ direction, releasing the 6-FAM fluorophore from its proximity to the three quenchers. This displacement effectively disrupts the Förster resonance energy transfer (FRET) and the resulting fluorescence detected upon excitation is directly proportional to the amount of the dUTP available in the assay for incorporation. […]

Chain of recombinant human deoxyuridine nucleotidohydrolase (dUTPase) (P33316 other isoform, or with tags, fused parts or gaps): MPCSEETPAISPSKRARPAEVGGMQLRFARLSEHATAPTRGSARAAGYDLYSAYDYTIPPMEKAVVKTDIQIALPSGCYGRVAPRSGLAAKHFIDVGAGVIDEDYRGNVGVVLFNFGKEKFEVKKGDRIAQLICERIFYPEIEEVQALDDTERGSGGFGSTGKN

SMILES | % relative inhibition vs. positive control [%] | IC50 [nM]
CC(C)COc1cc(C2(NS(=O)(=O)CC/C=C/CN3C(=O)NC(=O)C3(C)C)CC2)ccc1F [118a, (E)-5-(5,5-dimethyl-2,4-dioxoimidazolidin-1-yl)-N-(1-(4-fluoro-3-isobutoxyphenyl)cyclopropyl)pent-3-ene-1-sulfonamide] | 19 | –
CC(C)COc1cc(C2(NS(=O)(=O)CCCCCN3C(=O)NC(=O)C3(C)C)CC2)ccc1F [118b, 5-(5,5-dimethyl-2,4-dioxoimidazolidin-1-yl)-N-(1-(4-fluoro-3-isobutoxyphenyl)cyclopropyl)pentane-1-sulfonamide] | 19 | –
C[C@@H](NS(=O)(=O)CCCCCC1(C)NC(=O)NC1=O)c1ccc(F)c(OCC2CC2)c1 (stereo partly drawn) [127b, N—((R)-1-(3-(cyclopropylmethoxy)-4-fluorophenyl)ethyl)-5-(4-methyl-2,5-dioxoimidazolidin-4-yl) pentane-1-sulfonamide] | 71 | –
CC(C)COc1cc([C@@H](C)NS(=O)(=O)CC/C=C/CN2C(=O)NC(=O)[C@H]2C)ccc1F [Compound 108a, (E)-N—((R)-1-(4-fluoro-3-isobutoxyphenyl)ethyl)-5-((R)-5-methyl-2,4-dioxoimidazolidin-1-yl)pent-3-ene-1-sulfonamide] | 123 | –
CC(C)COc1cc([C@@H](C)NS(=O)(=O)CCCCCN2C(=O)NC(=O)[C@H]2C)ccc1F [Compound 108b, N—((R)-1-(4-fluoro-3-isobutoxyphenyl)ethyl)-5-((R)-5-methyl-2,4-dioxoimidazolidin-1-yl)pentane-1-sulfonamide] | 94 | –
O=C1CN(C/C=C/CCCNS(=O)(=O)c2cccc(OCC3CC3)c2)C(=O)N1 [Example 79, (E)-3-(cyclopropylmethoxy)-N-(6-(2,4-dioxoimidazolidin-1-yl)hex-4-en-1-yl)benzenesulfonamide] | 139 | –
O=C1CN(CCCCCCNS(=O)(=O)c2cccc(OCC3CC3)c2)C(=O)N1 [Example 80, 3-(cyclopropylmethoxy)-N-(6-(2,4-dioxoimidazolidin-1-yl)hexyl)benzenesulfonamide] | 151 | –
CCOc1cc([C@@H](C)NS(=O)(=O)CCCCCN2CC(=O)NC2=O)ccc1F [Example 82, (R)-5-(2,4-dioxoimidazolidin-1-yl)-N-(1-(3-ethoxy-4-fluorophenyl)ethyl)pentane-1-sulfonamide] | 25 | 3000
C[C@@H](NS(=O)(=O)CCCCCN1CC(=O)NC1=O)c1ccc(F)c(OC2CCC2)c1 [Example 83, (R)—N-(1-(3-cyclobutoxy-4-fluorophenyl)ethyl)-5-(2,4-dioxoimidazolidin-1-yl)pentane-1-sulfonamide] | 37 | 2000
C[C@@H](NS(=O)(=O)CCCOCN1CC(=O)NC1=O)c1cccc(OC2CCCC2)c1 [Example 84, (R)—N-(1-(3-(cyclopentyloxy)phenyl)ethyl)-3-((2,4-dioxoimidazolidin-1-yl)methoxy)propane-1-sulfonamide] | 30 | 2500
C[C@@H](NS(=O)(=O)CCCOCN1CC(=O)NC1=O)c1ccc(F)c(OC2CCCC2)c1 [Example 85, (R)—N-(1-(3-(cyclopentyloxy)-4-fluorophenyl)ethyl)-3-((2,4-dioxoimidazolidin-1-yl)methoxy)propane-1-sulfonamide] | 187 | –
C[C@@H](NS(=O)(=O)CCCCCN1CC(=O)NC1=O)c1ccc(F)c(OC2CCCC2)c1 [Example 86, (R)—N-(1-(3-(cyclopentyloxy)-4-fluorophenyl)ethyl)-5-(2,4-dioxoimidazolidine-1-yl)pentane-1-sulfonamide] | 187 | –
C[C@@H](NS(=O)(=O)CCCCCN1CC(=O)NC1=O)c1ccc(F)c(OCC2COC2)c1 [Example 87, (R)-5-(2,4-dioxoimidazolidin-1-yl)-N-(1-(4-fluoro-3-(oxetane-3-ylmethoxy)phenyl)ethyl)pentane-1-sulfonamide] | 37 | 2000
C[C@@H](NS(=O)(=O)CCCCCN1CC(=O)NC1=O)c1ccc(F)c(OCC2CCC2)c1 [Example 88, (R)—N-(1-(3-(cyclobutylmethoxy)-4-fluorophenyl)ethyl)-5-(2,4-dioxoimidazolidin-1-yl)pentane-1-sulfonamide] | 93 | 800
C[C@@H](NS(=O)(=O)CCCCCN1CC(=O)NC1=O)c1cccc(OC2CCCC2)c1 [Example 89, (R)—N-(1-(3-(cyclopentyloxy)phenyl)ethyl)-5-(2,4-dioxoimidazolidin-1-yl)pentane-1-sulfonamide] | 93 | 800
CC(Oc1cc([C@@H](C)NS(=O)(=O)CCCCCN2CC(=O)NC2=O)ccc1F)C1CC1 (stereo partly drawn) [Example 90, N—((1R)-1-(3-(1-cyclopropylethoxy)-4-fluorophenyl)ethyl)-5-(2,4-dioxoimidazolidin-1-yl)pentane-1-sulfonamide] | 37 | 2000

Results, then the compound that gave them:

% relative inhibition vs. positive control [%] | IC50 [nM] | SMILES
10 | – | CC1(C)C(=O)NC(=O)N1C/C=C/CCS(=O)(=O)NC1(c2ccc(F)c(OCC3CC3)c2)CC1 [119a, (E)-N-(1-(3-(cyclopropylmethoxy)-4-fluorophenyl)cyclopropyl)-5-(5,5-dimethyl-2,4-dioxoimidazolidin-1-yl)pent-3-ene-1-sulfonamide]
23 | – | CC1(C)C(=O)NC(=O)N1CCCCCS(=O)(=O)NC1(c2ccc(F)c(OCC3CC3)c2)CC1 [119b, N-(1-(3-(cyclopropylmethoxy)-4-fluorophenyl)cyclopropyl)-5-(5,5-dimethyl-2,4-dioxoimidazolidin-1-yl)pentane-1-sulfonamide]
105 | – | C[C@H]1C(=O)NC(=O)N1C/C=C/CCS(=O)(=O)NC1(c2cccc(OCC3CC3)c2)CC1 [123a, (S,E)-N-(1-(3-(cyclopropylmethoxy)phenyl)cyclopropyl)-5-(5-methyl-2,4-dioxoimidazolidin-1-yl)pent-3-ene-1-sulfonamide]
102 | – | C[C@H]1C(=O)NC(=O)N1CCCCCS(=O)(=O)NC1(c2cccc(OCC3CC3)c2)CC1 [123b, (S)—N-(1-(3-(cyclopropylmethoxy)phenyl)cyclopropyl)-5-(5-methyl-2,4-dioxoimidazolidin-1-yl)pentane-1-sulfonamide]
37 | – | C[C@@H](NS(=O)(=O)C/C=C/CCC1(C)NC(=O)NC1=O)c1ccc(F)c(OCC2CC2)c1 (stereo partly drawn) [127a, (E)-N—((R)-1-(3-(cyclopropylmethoxy)-4-fluorophenyl)ethyl)-5-(4-methyl-2,5-dioxoimidazolidin-4-yl) pent-2-ene-1-sulfonamide]
153 | – | C[C@@H](NS(=O)(=O)CC/C=C/CN1C(=O)NC(=O)[C@@H]1C)c1ccc(F)c(OCC2CC2)c1 [Compound 107a, (E)-N—((R)-1-(3-(cyclopropylmethoxy)-4-fluorophenyl)ethyl)-5-((S)-5-methyl-2,4-dioxoimidazolidin-1-yl)pent-3-ene-1-sulfonamide]
154 | – | C[C@@H](NS(=O)(=O)CCCCCN1C(=O)NC(=O)[C@@H]1C)c1ccc(F)c(OCC2CC2)c1 [Compound 107b, N—((R)-1-(3-(cyclopropylmethoxy)-4-fluorophenyl)ethyl)-5-((S)-5-methyl-2,4-dioxoimidazolidin-1-yl)pentane-1-sulfonamide]
